Values joined by “and” are separate entries in the source; they are usually repeats but may differ in a detail not shown here. Equal values may be shown once.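 A five-concentration, 48-hour dose response in 96-well plates underlies each endpoint, interpolated linearly between surrounding concentrations. At the GI50, growth is halved. TGI: concentration producing complete growth inhibition.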
Legend:
Assay in all cases: NCI tumour cell line growth inhibition, 48 h
SNB-75 CNS = tested on: SNB-75 CNS
UACC-257 melanoma = tested on: UACC-257 melanoma
MOLT-4 leukemia = tested on: MOLT-4 leukemia
HL-60(TB) leukemia = tested on: HL-60(TB) leukemia
RXF 393 renal = tested on: RXF 393 renal
T-47D breast = tested on: T-47D breast
MALME-3M melanoma = tested on: MALME-3M melanoma
DU-145 prostate = tested on: DU-145 prostate
MCF7 breast = tested on: MCF7 breast
HT29 colon = tested on: HT29 colon
OVCAR-5 ovarian = tested on: OVCAR-5 ovarian
A549 NSCLC = tested on: A549 NSCLC
A498 renal = tested on: A498 renal
EKVX NSCLC = tested on: EKVX NSCLC
HCT-15 colon = tested on: HCT-15 colon
IGROV1 ovarian = tested on: IGROV1 ovarian
M14 melanoma = tested on: M14 melanoma
KM12 colon = tested on: KM12 colon
SN12C renal = tested on: SN12C renal
HS 578T breast = tested on: HS 578T breast
MDA-MB-231 breast = tested on: MDA-MB-231 breast
NCI-H522 lung = tested on: NCI-H522 lung
U251 CNS = tested on: U251 CNS
CCRF-CEM leukemia = tested on: CCRF-CEM leukemia
SF-539 CNS = tested on: SF-539 CNS
SR leukemia = tested on: SR leukemia
SK-OV-3 ovarian = tested on: SK-OV-3 ovarian
786-0 renal = tested on: 786-0 renal
OVCAR-4 ovarian = tested on: OVCAR-4 ovarian
SW-620 colon = tested on: SW-620 colon
LOX IMVI melanoma = tested on: LOX IMVI melanoma
HOP-62 NSCLC = tested on: HOP-62 NSCLC
SK-MEL-5 melanoma = tested on: SK-MEL-5 melanoma
HCC-2998 colon = tested on: HCC-2998 colon
NCI-H23 lung = tested on: NCI-H23 lung
RPMI-8226 leukemia = tested on: RPMI-8226 leukemia
OVCAR-8 ovarian = tested on: OVCAR-8 ovarian
PC-3 prostate = tested on: PC-3 prostate
K-562 leukemia = tested on: K-562 leukemia
SNB-19 CNS = tested on: SNB-19 CNS
MDA-MB-435 = tested on: MDA-MB-435
HOP-92 NSCLC = tested on: HOP-92 NSCLC
UACC-62 melanoma = tested on: UACC-62 melanoma
UO-31 renal = tested on: UO-31 renal
OVCAR-3 ovarian = tested on: OVCAR-3 ovarian
HCT-116 colon = tested on: HCT-116 colon
COLO 205 colon = tested on: COLO 205 colon
BT-549 breast = tested on: BT-549 breast
MDA-N = tested on: MDA-N
SF-295 CNS = tested on: SF-295 CNS
NCI-H460 lung = tested on: NCI-H460 lung
SK-MEL-2 melanoma = tested on: SK-MEL-2 melanoma
SK-MEL-28 melanoma = tested on: SK-MEL-28 melanoma
SF-268 CNS = tested on: SF-268 CNS
ACHN renal = tested on: ACHN renal
TK-10 renal = tested on: TK-10 renal
NCI-H226 lung = tested on: NCI-H226 lung
CAKI-1 renal = tested on: CAKI-1 renal
NCI/ADR-RES ovarian = tested on: NCI/ADR-RES ovarian

## N#CC1=C(N)OC2=C(CCCc3ccccc32)C1c1ccc([N+](=O)[O-])cc1 (stereo unspecified)
SNB-75 CNS
  TGI: > 100 µM
UACC-257 melanoma
  TGI: 32.4 µM
MOLT-4 leukemia
  TGI: 1.64 µM
HL-60(TB) leukemia
  TGI: 28.2 µM
RXF 393 renal
  TGI: 27.6 µM
T-47D breast
  TGI: 26.1 µM
MALME-3M melanoma
  TGI: 29.9 µM
DU-145 prostate
  TGI: 21.8 µM
MCF7 breast
  TGI: 36.4 µM
HT29 colon
  TGI: 28.2 µM
OVCAR-5 ovarian
  TGI: 50.2 µM
A549 NSCLC
  TGI: 74.6 µM
A498 renal
  TGI: 27.1 µM
EKVX NSCLC
  TGI: 43 µM
HCT-15 colon
  TGI: 30.7 µM
IGROV1 ovarian
  TGI: 54 µM
M14 melanoma
  TGI: 28 µM
KM12 colon
  TGI: 32.5 µM
SN12C renal
  TGI: 29 µM
HS 578T breast
  TGI: > 100 µM
MDA-MB-231 breast
  TGI: > 100 µM
NCI-H522 lung
  TGI: 24.2 µM
U251 CNS
  TGI: 29.8 µM
CCRF-CEM leukemia
  TGI: 23.2 µM
SF-539 CNS
  TGI: 35.2 µM
SR leukemia
  TGI: 37.4 µM
SK-OV-3 ovarian
  TGI: 92.1 µM
786-0 renal
  TGI: 42.6 µM
OVCAR-4 ovarian
  TGI: 75.4 µM
SW-620 colon
  TGI: 35.5 µM
LOX IMVI melanoma
  TGI: 41.1 µM
HOP-62 NSCLC
  TGI: 35.9 µM
SK-MEL-5 melanoma
  TGI: 28.3 µM
HCC-2998 colon
  TGI: 26.8 µM
NCI-H23 lung
  TGI: 34.6 µM
RPMI-8226 leukemia
  TGI: 13.1 µM
OVCAR-8 ovarian
  TGI: 39 µM
PC-3 prostate
  TGI: 38.8 µM
K-562 leukemia
  TGI: 11.5 µM
SNB-19 CNS
  TGI: 45.7 µM
MDA-MB-435
  TGI: 39.8 µM
HOP-92 NSCLC
  TGI: 57.9 µM
UACC-62 melanoma
  TGI: 24.5 µM
UO-31 renal
  TGI: 24 µM
OVCAR-3 ovarian
  TGI: 26.7 µM
HCT-116 colon
  TGI: 26.1 µM
COLO 205 colon
  TGI: 31.7 µM
BT-549 breast
  TGI: 23.9 µM
MDA-N
  TGI: 38.2 µM
SF-295 CNS
  TGI: 36.1 µM
NCI-H460 lung
  TGI: 47.7 µM
SK-MEL-2 melanoma
  TGI: 40.8 µM
SK-MEL-28 melanoma
  TGI: 35.2 µM
SF-268 CNS
  TGI: 32.7 µM
ACHN renal
  TGI: 39.1 µM
TK-10 renal
  TGI: 84.9 µM
NCI-H226 lung
  TGI: 52.5 µM
CAKI-1 renal
  TGI: > 100 µM
NCI/ADR-RES ovarian
  TGI: 31.6 µM

## Nc1ccccc1NC(=O)c1ccc(CNC(=O)OCc2cccnc2)cc1
SNB-75 CNS
  TGI: > 100 µM
UACC-257 melanoma
  TGI: > 29 µM
MOLT-4 leukemia
  GI50: 1.93 µM
  TGI: > 85 µM
HL-60(TB) leukemia
  GI50: 0.847 µM
  TGI: 26.6 µM and > 22.5 µM
RXF 393 renal
  GI50: 1.49 µM
  TGI: 6.31 µM and 27.6 µM
T-47D breast
  GI50: 0.462 µM
  TGI: > 100 µM
MALME-3M melanoma
  GI50: 0.577 µM and 0.267 µM
  TGI: > 23.6 µM and 2.39 µM
DU-145 prostate
  GI50: 2.26 µM
  TGI: > 100 µM
MCF7 breast
  GI50: 0.637 µM
  TGI: > 100 µM
HT29 colon
  GI50: 1.04 µM
OVCAR-5 ovarian
  GI50: 1.05 µM
A549 NSCLC
  TGI: > 100 µM
A498 renal
  GI50: 0.361 µM
  TGI: 2.98 µM and 4.14 µM
EKVX NSCLC
  GI50: 3.26 µM
  TGI: > 100 µM
HCT-15 colon
  GI50: 8.47 µM
  TGI: > 100 µM
IGROV1 ovarian
  GI50: 3.95 µM
  TGI: > 61.6 µM and 36.2 µM
M14 melanoma
  GI50: 2.35 µM
  TGI: > 100 µM and 15.5 µM
KM12 colon
  GI50: 4.31 µM
  TGI: > 100 µM
SN12C renal
  GI50: 9.39 µM
  TGI: > 100 µM
HS 578T breast
  GI50: 2.33 µM
  TGI: > 100 µM
MDA-MB-231 breast
  GI50: 13.8 µM
  TGI: > 100 µM and 25.6 µM
NCI-H522 lung
  GI50: 0.698 µM
  TGI: 7.41 µM and > 27.9 µM
U251 CNS
  GI50: 2.03 µM
  TGI: > 39.5 µM and 5.74 µM
CCRF-CEM leukemia
  GI50: 1.94 µM
  TGI: > 100 µM and 21.7 µM
SF-539 CNS
  GI50: 3.19 µM
  TGI: 78.7 µM and > 52.1 µM
SR leukemia
  GI50: 0.533 µM
  TGI: > 100 µM
SK-OV-3 ovarian
  GI50: 2.75 µM
  TGI: > 100 µM
786-0 renal
  GI50: 4.96 µM
  TGI: > 90.9 µM
OVCAR-4 ovarian
  GI50: 1.31 µM
  TGI: > 100 µM
SW-620 colon
  GI50: 1.3 µM
  TGI: 34.5 µM and > 100 µM
LOX IMVI melanoma
  GI50: 1.06 µM
  TGI: 8.67 µM and 5.94 µM
HOP-62 NSCLC
  TGI: > 90 µM
SK-MEL-5 melanoma
  GI50: 0.743 µM
  TGI: 2.31 µM and 2.3 µM
HCC-2998 colon
  TGI: 5.44 µM and 9.79 µM
NCI-H23 lung
  GI50: 3.23 µM
  TGI: > 89.4 µM and 14.9 µM
RPMI-8226 leukemia
  GI50: 0.895 µM
  TGI: > 29.5 µM and 4.54 µM
OVCAR-8 ovarian
  TGI: > 100 µM
PC-3 prostate
  TGI: > 100 µM
K-562 leukemia
  GI50: 0.505 µM
  TGI: > 100 µM
SNB-19 CNS
  GI50: 6.33 µM
  TGI: > 100 µM and 75.2 µM
MDA-MB-435
  GI50: 0.956 µM
  TGI: 14.8 µM and > 33.1 µM
HOP-92 NSCLC
  GI50: 0.0382 µM
UACC-62 melanoma
  GI50: 0.278 µM
  TGI: 1.77 µM and 4.81 µM
UO-31 renal
  GI50: 1.17 µM
  TGI: > 100 µM and 20.3 µM
OVCAR-3 ovarian
  GI50: 1.74 µM
  TGI: 11.5 µM and 14.8 µM
HCT-116 colon
  GI50: 0.798 µM
  TGI: > 92 µM and 11.6 µM
COLO 205 colon
  GI50: 2.01 µM
  TGI: 8.37 µM and 3.03 µM
BT-549 breast
  GI50: 4.14 µM
  TGI: > 100 µM
MDA-N
  TGI: 12.4 µM
SF-295 CNS
  GI50: 2.57 µM
  TGI: > 39.8 µM and 16.6 µM
NCI-H460 lung
  GI50: 0.83 µM
  TGI: > 100 µM
SK-MEL-2 melanoma
  GI50: 1.1 µM
  TGI: 15 µM and 3.2 µM
SK-MEL-28 melanoma
  GI50: 0.663 µM
  TGI: 5.94 µM and > 45.4 µM
SF-268 CNS
  GI50: 1.86 µM
  TGI: 25 µM and > 74.7 µM
ACHN renal
  GI50: 2.34 µM
  TGI: > 77.7 µM and 25.7 µM
TK-10 renal
  GI50: 0.289 µM
  TGI: 38.8 µM and > 100 µM
NCI-H226 lung
  GI50: 0.604 µM
  TGI: 16.9 µM and 5.73 µM
CAKI-1 renal
  GI50: 1.17 µM
  TGI: 14.1 µM and > 59.5 µM
NCI/ADR-RES ovarian
  GI50: 2.38 µM
  TGI: > 67.4 µM
